# Results from PMC6129397 (Xenobiotica; the fate of foreign compounds in biological …, 2017).
# Read-outs that look alike come from different tables or passages of the source.
# Columns and labels:
# [1] = biological target: T1, glucocorticoid receptor (GR) (Homo sapiens, UniProt P04150); assay: Glucocorticoid receptor; type: cell-based
# T1 sequence (P04150 1-777): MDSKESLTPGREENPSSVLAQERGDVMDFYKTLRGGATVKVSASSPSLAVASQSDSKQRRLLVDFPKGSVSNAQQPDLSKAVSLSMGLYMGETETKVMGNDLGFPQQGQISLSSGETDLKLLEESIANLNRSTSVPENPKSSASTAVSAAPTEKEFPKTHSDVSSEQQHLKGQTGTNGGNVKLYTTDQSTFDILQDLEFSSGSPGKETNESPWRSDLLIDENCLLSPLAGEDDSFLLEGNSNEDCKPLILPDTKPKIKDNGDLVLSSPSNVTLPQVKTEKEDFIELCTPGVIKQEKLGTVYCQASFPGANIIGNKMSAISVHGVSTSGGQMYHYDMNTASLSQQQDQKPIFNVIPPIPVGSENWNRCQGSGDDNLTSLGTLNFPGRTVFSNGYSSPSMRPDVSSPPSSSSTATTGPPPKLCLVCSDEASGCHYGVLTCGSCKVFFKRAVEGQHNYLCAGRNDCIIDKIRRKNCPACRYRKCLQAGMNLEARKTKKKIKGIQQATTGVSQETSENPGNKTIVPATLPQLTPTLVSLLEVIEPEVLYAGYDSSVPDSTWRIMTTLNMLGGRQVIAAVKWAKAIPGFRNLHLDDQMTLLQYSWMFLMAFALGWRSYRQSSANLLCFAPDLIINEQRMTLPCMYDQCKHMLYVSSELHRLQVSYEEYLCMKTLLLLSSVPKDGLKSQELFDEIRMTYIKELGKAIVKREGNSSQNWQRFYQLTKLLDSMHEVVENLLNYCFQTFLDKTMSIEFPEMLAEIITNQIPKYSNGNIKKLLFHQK
# [2] = biological target: T2, progesterone receptor (PR) (Homo sapiens, UniProt P06401); assay: Progesterone receptor; type: cell-based
# T2 sequence (P06401 1-933): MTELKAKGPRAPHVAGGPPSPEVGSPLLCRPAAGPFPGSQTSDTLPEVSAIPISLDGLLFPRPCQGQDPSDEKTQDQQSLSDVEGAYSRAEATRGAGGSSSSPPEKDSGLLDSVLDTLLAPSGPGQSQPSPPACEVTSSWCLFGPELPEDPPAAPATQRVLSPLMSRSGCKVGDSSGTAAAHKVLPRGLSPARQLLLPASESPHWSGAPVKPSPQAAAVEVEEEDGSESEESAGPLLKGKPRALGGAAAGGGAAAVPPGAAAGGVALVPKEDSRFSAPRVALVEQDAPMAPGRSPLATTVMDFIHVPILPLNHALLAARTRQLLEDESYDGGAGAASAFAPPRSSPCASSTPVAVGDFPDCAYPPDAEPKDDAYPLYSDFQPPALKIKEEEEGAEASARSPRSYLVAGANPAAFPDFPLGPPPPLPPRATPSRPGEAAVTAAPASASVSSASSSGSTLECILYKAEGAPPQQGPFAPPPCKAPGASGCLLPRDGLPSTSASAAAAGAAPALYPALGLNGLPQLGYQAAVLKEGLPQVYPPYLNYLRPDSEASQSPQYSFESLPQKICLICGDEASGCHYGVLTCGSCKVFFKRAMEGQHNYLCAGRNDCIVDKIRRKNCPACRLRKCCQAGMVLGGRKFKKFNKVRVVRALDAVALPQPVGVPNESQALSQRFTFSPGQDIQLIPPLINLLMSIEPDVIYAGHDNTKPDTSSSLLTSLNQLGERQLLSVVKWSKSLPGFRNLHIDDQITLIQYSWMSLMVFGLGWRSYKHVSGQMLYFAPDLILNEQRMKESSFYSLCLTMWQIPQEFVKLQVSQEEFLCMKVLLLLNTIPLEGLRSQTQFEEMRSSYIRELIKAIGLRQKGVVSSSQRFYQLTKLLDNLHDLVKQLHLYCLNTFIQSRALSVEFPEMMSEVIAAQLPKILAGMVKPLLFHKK
# [3] = system: human liver microsomes (HLM); assay: Oxidation-glucuronidation assay with HLMs; type: in vitro ADME
# [4] = system: HLMs
# [5] = T47D cells, 8 h, 10 nM, versus ethanol
smiles,measurement,setting,value
"C[C@@H]1C[C@H]2[C@@H]3CCC4=CC(=O)C=C[C@]4(C)[C@@]3(F)[C@@H](O)C[C@]2(C)[C@@]1(O)C(=O)CO [Dexamethasone, dexamethasone]",average mRNA fold change GILZ,"[1]; MDA-MB-231 cells, 4 h, 0.1 μM",18.5 fold change
same,average mRNA fold change SGK1,"[1]; MDA-MB-231 cells, 4 h, 0.1 μM",5.6 fold change
"CC(=O)O[C@]1(C(C)=O)CC[C@H]2[C@@H]3C=C(C)C4=CC(=O)CC[C@]4(C)[C@H]3CC[C@@]21C [MA, Megestrol acetate]",pharmacologic activity on the PR,[2]; in words,significant pharmacologic activity
same,activity on the GR,[1]; in words,showed activity
same,glucuronide formation by HLM,[3]; UDPGA alone (data not shown),does not form any glucuronides
same,glucuronide formation by HLM,"[3]; co-incubation with both NADPH and UDPGA, 24 hrs",two glucuronides were detected
CCC(=O)[C@@]1(C)CC[C@H]2[C@@H]3CCC4=CC(=O)CCC4=C3CC[C@@]21C [Metabolite R5020],average mRNA fold change E2F1,[2]; [5],4.8 ± 0.4 fold change
same,average mRNA fold change FKBP5,[2]; [5],9.5 ± 0.3 fold change
same,average mRNA fold change GREB1,[2]; [5],2.2 ± 0.1 fold change
CC(=O)N1CCN(c2ccc(OCC3COC(Cn4ccnc4)(c4ccc(Cl)cc4Cl)O3)cc2)CC1 (centres unmarked) [ketoconazole],inhibition of M1,"[4]; 28 μM MA, ketoconazole 1 μM",96.2%
same,inhibition of M2,"[4]; 28 μM MA, ketoconazole 1 μM",100%
same,inhibition of M1,"[4]; 62 μM MA, ketoconazole 1 μM",100%
same,inhibition of M2,"[4]; 62 μM MA, ketoconazole 1 μM",100%
CO[C@H]1C[C@H](O[C@H]2[C@H](C)[C@@H](O[C@@H]3O[C@H](C)C[C@H](N(C)C)[C@H]3OC(C)=O)[C@@H](C)C[C@@]3(CO3)C(=O)[C@H](C)[C@@H](OC(C)=O)[C@@H](C)[C@@H](C)OC(=O)[C@@H]2C)O[C@@H](C)[C@@H]1OC(C)=O [troleandomycin],inhibition of M1,"[4]; 28 μM MA, troleandomycin 50 μM",93.2%
same,inhibition of M2,"[4]; 28 μM MA, troleandomycin 50 μM",100%
same,inhibition of M1,"[4]; 62 μM MA, troleandomycin 50 μM",94.4%
same,inhibition of M2,"[4]; 62 μM MA, troleandomycin 50 μM",100%
